The values below come from patent US20250092015A1, “A 6-substituted Chiral Pure Difluoropiperidine Quinazoline Derivative And Its Preparation Method” (WEISHANG (SHANGHAI) BIO-PHARMACEUTICAL CO., LTD., priority 2022, published 2025).

Like-named read-outs stand apart in the source and are kept apart here. Some results are limits rather than exact numbers.

One data set concerns the target EGFR enzyme (Homo sapiens, UniProt P00533). Nature of the data set: EGFR enzyme ADP-Glo mechanism of action study (ATP titration). As to conditions: PolyE4Y1 substrate, ATP diluted from 600 uM, FIG. 4. It is filed as biochemical. How it is done: In the study of the mechanism of action of (R)-6-((3,3-difluoro-1-methylpiperidin-4-yl)oxy)-N-(3-ethynyl-2-fluorophenyl)-7-methoxyquinazoline-4-amine prepared by the present disclosure to inhibit EGFR, EGFR enzyme was added to a solution of PolyE4Y1 on a 384-well plate from 6 concentrations diluted at an equal ratio of 0.4 nM (2-fold) to 0.0125 nM and 0 concentration, and incubated for 15 min. ATP was added at 7 concentrations diluted at an equal ratio of 600 uM (2-fold) for reaction for 60 min, and then ADP-Glo reagent and detection reagent were added for 40 min to measure RLU signal. […] The benefits of this mechanism of action are obvious, with minimal side effects and anti-drug resistance.
(In general: ADP-Glo turns the ADP formed in a reaction into a luminescent signal.)

Data set [1] deals with PC-9 tumor cell (EGFR Del 19 mutation). Nature of the data set: CellTiter-Glo (CTG) cell viability, PC-9 cells. Format: cell-based. To be noted: Homo sapiens, 72 h of drug addition, read-out: Growth inhibition IC50, PC-9 tumor cell (EGFR Del 19 mutation). How it is done: (§1) Cell viability of tumor cells and gliomas with EGFR-activated mutant (Exon 19 Del, PC-9 cell; Exon 21 L858R, H3255 cell) protein was detected using CellTiter-Glo (CTG) assay; approximately 5000 cells were placed in each blank of the 96-well plate. The diluted compound was added proportionally after 16 h and equilibrated at room temperature for 30 min after 72 h of drug addition. 100 µL of CellTiter-Glo reagent was added to each well and mixed well on an orbital shaker for 2 min to induce cell lysis. The plate was incubated at room temperature for 10 min to stabilize the luminous signal. The luminous signal was recorded on a TECAN Infinite M1000 Pro instrument.
Background: Cellular ATP, detected with luciferase, serves as a proxy for viable cell number.

The nature of data set [2]: Rate of crossing blood-brain barrier in rats. It is filed as in vivo. To be noted: 4 h after administration. How it is done: To determine whether (R)-6-((3,3-difluoro-1-methylpiperidin-4-yl)oxy)-N-(3-ethynyl-2-fluorophenyl)-7-methoxyquinazoline-4-amine prepared by the present disclosure is able to cross the blood-brain barrier (BBB), the test compound was administered to rats. After 4 h of administration, the rats were killed and blood and brain tissues were collected to test the compound concentration. Brain osmosis is defined as the ratio of the concentration of compounds in brain tissue to the concentration in plasma. The rate of crossing blood-brain barrier is the ratio of free drug concentration in brain tissue to free drug concentration in plasma. P-glycoprotein is an efflux protein at the blood-brain barrier that excretes P-glycoprotein substrate from the brain. Breast cancer resistance protein is an efflux protein at the blood-brain barrier that excretes […].

In data set [3] the test system is H3255 tumor cell (EGFR L858R mutation). Description: CellTiter-Glo (CTG) cell viability, H3255 cells. It is filed as cell-based. As to conditions: Homo sapiens, NCI-H3255, 72 h of drug addition, read-out: Growth inhibition IC50, H3255 tumor cell (EGFR L858R mutation). As for the experimental part:
as §1

Data set [4] in a line: Pharmacokinetic study of rats (bioavailability). It is filed as in vivo. As to conditions: rat, blood, 1-2 mg/kg iv vs 2-40 mg/kg PO. How it is done:
In the pharmacokinetic study of rats, Group 1 (3 rats) was administrated with 1-2 mg/kg, iv, and Group 2 (3 rats) was administrated with 2-40 mg/kg, PO. Blood was sampled at 7 time points (0.25, 0.5, 1, 2, 4, 8 and 16 hours points) to measure the concentration of the quinazoline derivatives (I) prepared by the present disclosure in blood and calculate the peak area and half-life. Bioavailability is calculated as (peak area of oral drug/oral dose)/(peak area of intravenous drug/intravenous dose)×100%.

Data set [5] relates to PC-9luc tumor cells (non-small cell lung cancer with Exon 19 Del). Description: Survival in mouse model of intracranial meningeal metastasis. It is filed as in vivo. To be noted: PO, BID, PC-9luc seeded into brain of mice, FIG. 3. As for the experimental part: PC-9luc tumor cells (non-small cell lung cancer with Exon 19 Del, about 2×10^5 cells) were seeded into the brain of mice, and administration was started approximately 11 days after tumor growth. Group 1 was the control group (8 mice), without any medication. Group 2 received Iressa (8 mice), 15 mg/kg, PO. Group 3 received (R)-6-((3,3-difluoro-1-methylpiperidin-4-yl)oxy)-N-(3-ethynyl-2-fluorophenyl)-7-methoxyquinazoline-4-amine monotherapy group (8 mice), 10 mg/kg, PO, BID. Group 4 received (R)-6-((3,3-difluoro-1-methylpiperidin-4-yl)oxy)-N-(3-ethynyl-2-fluorophenyl)-7-methoxyquinazoline-4-amine monotherapy group (8 mice), 3 mg/kg, PO, BID.

The target of the next data set is P-glycoprotein (Homo sapiens, UniProt P08183). Nature of the data set: P-glycoprotein efflux substrate test. It is filed as in vitro ADME.
Sequence of P-glycoprotein (P08183 whole entry): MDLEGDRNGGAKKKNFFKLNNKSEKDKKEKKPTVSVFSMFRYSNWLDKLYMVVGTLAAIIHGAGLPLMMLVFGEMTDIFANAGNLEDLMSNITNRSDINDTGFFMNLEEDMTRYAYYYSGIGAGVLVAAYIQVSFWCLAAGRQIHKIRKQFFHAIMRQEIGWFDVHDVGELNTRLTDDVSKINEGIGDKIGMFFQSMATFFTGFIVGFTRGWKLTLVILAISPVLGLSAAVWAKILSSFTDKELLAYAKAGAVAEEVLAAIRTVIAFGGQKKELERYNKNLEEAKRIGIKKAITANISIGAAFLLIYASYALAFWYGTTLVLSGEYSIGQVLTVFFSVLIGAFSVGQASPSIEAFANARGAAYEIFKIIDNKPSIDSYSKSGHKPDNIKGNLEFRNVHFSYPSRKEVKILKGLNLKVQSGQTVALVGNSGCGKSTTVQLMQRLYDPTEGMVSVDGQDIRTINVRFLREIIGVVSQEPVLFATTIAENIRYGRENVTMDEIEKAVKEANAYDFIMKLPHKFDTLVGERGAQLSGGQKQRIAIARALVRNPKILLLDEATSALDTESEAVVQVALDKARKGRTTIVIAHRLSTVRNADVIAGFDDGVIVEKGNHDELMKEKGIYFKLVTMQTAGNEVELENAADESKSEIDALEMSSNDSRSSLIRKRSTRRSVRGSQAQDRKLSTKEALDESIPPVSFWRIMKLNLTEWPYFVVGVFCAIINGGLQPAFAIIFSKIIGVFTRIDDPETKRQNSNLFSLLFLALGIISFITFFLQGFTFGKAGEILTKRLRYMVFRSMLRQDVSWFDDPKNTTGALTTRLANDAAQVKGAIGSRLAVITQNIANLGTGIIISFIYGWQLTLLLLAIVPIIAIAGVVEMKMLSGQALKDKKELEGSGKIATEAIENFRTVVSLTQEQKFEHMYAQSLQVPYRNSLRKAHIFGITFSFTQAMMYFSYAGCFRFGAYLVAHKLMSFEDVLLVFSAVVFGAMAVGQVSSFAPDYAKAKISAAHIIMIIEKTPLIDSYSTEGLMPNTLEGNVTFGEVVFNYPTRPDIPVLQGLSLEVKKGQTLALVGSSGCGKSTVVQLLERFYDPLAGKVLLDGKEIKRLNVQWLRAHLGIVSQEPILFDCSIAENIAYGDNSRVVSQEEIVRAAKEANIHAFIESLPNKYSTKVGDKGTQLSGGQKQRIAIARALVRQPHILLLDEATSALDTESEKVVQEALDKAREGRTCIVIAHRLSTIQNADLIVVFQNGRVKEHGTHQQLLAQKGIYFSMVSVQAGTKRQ
For data set [6], the system named is patient's primary tumor tissue GBM (EGFRV3 mutated brain tumor). Description: Survival in mouse intracranial PDX model. Format: in vivo, mice. As to conditions: 30 mg/kg, PO, BID, treatment more than 50 d, FIG. 2. As for the experimental part: The patient's primary tumor tissue GBM (brain tumor, about 50,000 cells) was seeded into the brain of mice. Administration began after the tumor grew for about 10 d and treatment lasted for more than 50 d. In the pharmacodynamic study of tumor transplanted animal model with EGFRV3 mutated brain tumor from patient's primary tumor tissue in mice, Group 1 was the control group (8 mice) without any medication. Group 2 received (R)-6-((3,3-difluoro-1-methylpiperidin-4-yl)oxy)-N-(3-ethynyl-2-fluorophenyl)-7-methoxyquinazoline-4-amine monotherapy group (8 mice), 30 mg/kg, PO, BID.

The target of data set [7] is T1, Breast cancer resistance protein (Homo sapiens, UniProt Q9UNQ0).
T1 sequence (Q9UNQ0 1-655): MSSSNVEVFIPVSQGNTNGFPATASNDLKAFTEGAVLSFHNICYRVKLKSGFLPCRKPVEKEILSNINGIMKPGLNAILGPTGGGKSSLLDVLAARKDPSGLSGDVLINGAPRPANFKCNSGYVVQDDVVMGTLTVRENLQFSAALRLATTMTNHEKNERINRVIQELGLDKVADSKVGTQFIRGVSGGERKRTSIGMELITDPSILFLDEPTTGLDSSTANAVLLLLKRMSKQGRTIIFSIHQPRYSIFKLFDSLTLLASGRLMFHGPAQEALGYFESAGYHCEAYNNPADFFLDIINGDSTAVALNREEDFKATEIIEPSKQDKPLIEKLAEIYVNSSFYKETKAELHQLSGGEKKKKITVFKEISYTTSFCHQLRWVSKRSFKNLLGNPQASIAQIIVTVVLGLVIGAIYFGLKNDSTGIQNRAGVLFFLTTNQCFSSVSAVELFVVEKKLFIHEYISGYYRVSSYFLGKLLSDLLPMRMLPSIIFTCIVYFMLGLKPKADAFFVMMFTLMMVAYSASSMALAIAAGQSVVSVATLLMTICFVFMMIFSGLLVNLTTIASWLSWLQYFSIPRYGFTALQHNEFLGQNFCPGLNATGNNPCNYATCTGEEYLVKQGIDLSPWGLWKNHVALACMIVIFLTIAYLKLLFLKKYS
Nature of the data set: Breast cancer resistance protein efflux substrate test. Format: in vitro ADME.

Data set [8] relates to Human glioma tumor cell with EGFRVIII mutation. Description: CellTiter-Glo (CTG) cell viability, glioma cells. As to conditions: 72 h of drug addition, read-out: Growth inhibition IC50, human glioma tumor cell with EGFRVIII mutation. It is filed as cell-based. How it is done:
as §1

Where [9] appears, read: listed as -1-3,3-difluoro-1-methylpiperidin-4-yl)oxy)-N-(3-ethynyl-2-fluorophenyl)-7-metho.

Sequence of EGFR enzyme (P00533 25-1210): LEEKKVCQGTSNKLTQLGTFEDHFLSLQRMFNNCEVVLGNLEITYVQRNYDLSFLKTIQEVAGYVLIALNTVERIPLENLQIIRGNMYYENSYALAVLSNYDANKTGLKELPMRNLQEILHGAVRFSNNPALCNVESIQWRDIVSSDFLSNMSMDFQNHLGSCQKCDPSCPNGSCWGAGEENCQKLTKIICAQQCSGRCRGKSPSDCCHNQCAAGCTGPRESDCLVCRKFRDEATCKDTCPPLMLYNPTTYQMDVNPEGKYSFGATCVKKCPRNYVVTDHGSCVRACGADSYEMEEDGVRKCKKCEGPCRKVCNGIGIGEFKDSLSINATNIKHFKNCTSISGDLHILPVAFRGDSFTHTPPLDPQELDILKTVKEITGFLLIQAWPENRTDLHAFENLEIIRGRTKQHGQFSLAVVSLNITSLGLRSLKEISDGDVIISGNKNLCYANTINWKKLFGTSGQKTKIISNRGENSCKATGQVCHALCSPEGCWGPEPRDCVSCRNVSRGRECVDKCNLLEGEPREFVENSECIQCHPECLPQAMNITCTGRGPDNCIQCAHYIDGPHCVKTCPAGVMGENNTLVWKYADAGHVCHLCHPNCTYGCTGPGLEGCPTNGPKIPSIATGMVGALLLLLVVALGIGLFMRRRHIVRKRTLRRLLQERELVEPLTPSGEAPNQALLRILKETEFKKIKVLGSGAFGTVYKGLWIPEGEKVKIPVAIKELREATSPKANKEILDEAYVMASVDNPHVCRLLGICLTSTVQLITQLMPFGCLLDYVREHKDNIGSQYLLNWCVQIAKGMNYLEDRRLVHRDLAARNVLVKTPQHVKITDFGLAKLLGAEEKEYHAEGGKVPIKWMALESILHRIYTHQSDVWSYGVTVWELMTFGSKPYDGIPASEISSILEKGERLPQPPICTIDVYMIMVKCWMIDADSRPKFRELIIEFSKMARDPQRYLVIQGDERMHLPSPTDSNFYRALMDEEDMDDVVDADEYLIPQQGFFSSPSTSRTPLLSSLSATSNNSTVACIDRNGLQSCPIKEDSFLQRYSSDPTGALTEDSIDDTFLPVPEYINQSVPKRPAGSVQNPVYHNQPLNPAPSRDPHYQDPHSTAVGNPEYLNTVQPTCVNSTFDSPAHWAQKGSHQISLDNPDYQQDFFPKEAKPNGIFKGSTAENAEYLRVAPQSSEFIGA

As usually defined, the IC50 is the concentration that inhibits the measured activity by half. One may read the bioavailability as dose-corrected exposure relative to a reference, in per cent. A high value points to much systemic uptake. Regarding `C#Cc1cccc(Nc2ncnc3cc(OC)c(O[C@@H]4CCN(C)CC4(F)F)cc23)c1F` [(R)-6-((3,3-difluoro-1-methylpiperidin-4-yl)oxy)-N-(3-ethynyl-2-fluorophenyl)-7-methoxyquinazoline-4-amine], at EGFR enzyme, the “Mechanism of action of EGFR inhibition” value was “non-ATP competitive”. In addition, the values for the IC50 in data set [1], in data set [3] and in [8] were 8 nM, 2 nM and 10 nM, respectively. In data set [2], the “Rate of crossing blood-brain barrier (ratio of free drug concentration in brain tissue to free drug concentration in plasma)” value is given as more than 50%. The Kp at 4 h in data set [2] (rat, brain tissue and plasma (free drug concentrations), read-out: Rate of crossing blood-brain barrier (ratio of free drug concentration in brain tissue to free drug concentration in plasma)) was more than 0.5. Also, the bioavailability in [4] was more than 35%. Moreover, the Survival result in data set [5] (Group 3, 10 mg/kg) is recorded as “significantly improved”; in [5] (Group 4, 3 mg/kg), “significantly improved”. Also, the P-glycoprotein efflux substrate entry on P-glycoprotein was “No”; on P-glycoprotein (setting [9]) it was “not P-glycoprotein substrate”. In addition, the “Survival compared to control group” value in data set [6] is recorded as “significantly prolonged”. In addition, the “Breast cancer resistance protein efflux substrate” value in [7] is on record as “No”; in data set [7] (setting [9]) it was “not P-glycoprotein substrate or breast cancer resistance protein efflux substrate”.
